# In patent publication US20240285571A1, “METHODS OF TREATING BONE INFECTIONS” (MICROBION CORPORATION, priority 2020, published 2024):
# Like-named read-outs stand apart in the source and are kept apart here.
# What was measured:
# M. abscessus (MABSC) = assay: MIC against CF isolates (Example 7, Table 18); type: cell-based, Mycobacterium abscessus complex; details: Mycobacteroides abscessus
# S. aureus ATCC 29213 = details: per CLSI M100-S24 or provided by Microbion; cited from earlier work
# E. faecium = assay: Broth microdilution MIC (Example 5); type: cell-based; details: E. faecium MMX 485; VRE vanA
# Experimental: (§1) Test and Comparator Agents: The test agents were stored at room temperature until assayed. […] The stock solutions were allowed to stand for at least 1 hr prior to use to auto-sterilize.
# (§2) TestMedia: Test media were prepared and stored in accordance with guidelines from CLSI (4, 6, 7).
# (§3) Broth Microdilution MC Testing (Aerobic Bacteria and Yeast): The broth microdilution assay method employed for the susceptibility testing of aerobic bacteria (excluding N. gonorrhoeae which was evaluated by agar dilution) and yeast essentially followed the procedures described by CLSI (3, 4, 7, 8) and employed automated liquid handlers to conduct serial dilutions and liquid transfers. […] These would become the ‘mother plates’ from which ‘daughter’ or test plates would be prepared. The drugs (300 μL at 40× the desired top concentration in the test plates) were dispensed into the appropriate well in Column 1 of the mother plates. The Biomek 2000 was used to make serial two-fold dilutions through Column 11 in the “mother plate”. The wells of Column 12 contained no drug and ultimately served as the organism growth control wells.
# (§4) The daughter plates were prepared using the Biomek FX which transferred 5 μL of drug solution from each well of a mother plate to the corresponding well of the correct daughter plate in a single step.
# (§5) A standardized inoculum of each organism was prepared per CLSI methods (3, 7). Isolated colonies of each test isolate were picked from the primary plate and a suspension was prepared to equal a 0.5 McFarland turbidity standard. Standardized suspensions were then diluted […] (1:100 for yeast, 1:20 for bacteria). After dilution, the inoculum suspensions were then transferred to compartments of sterile reservoirs divided by length (Beckman Coulter), and the Biomek 2000 was used to inoculate all plates. Daughter plates were placed on the Biomek 2000 in reverse orientation so that plates were inoculated from low to high drug concentration.
# (§6) The Biomek 2000 delivered 10 μL of standardized inoculum into each well of the appropriate daughter plate for an additional 1:20 dilution.
# (§7) Plates were stacked 4 high, covered with a lid on the top plate, placed into plastic bags, and incubated at 35° C. for approximately 24-48 hr for all yeast isolates and 16-24 hr for aerobic bacteria. Plates were viewed from the bottom using a plate viewer. […] MIC endpoints for the test agents and control compounds were read per CLSI criteria (3, 7).
# C. difficile = assay: Agar dilution MIC, anaerobes (Example 5); type: cell-based, Clostridium difficile; details: Clostridioides difficile, read-out: MIC
# B. fragilis = assay: Agar dilution MIC, anaerobes (Example 5); type: cell-based; details: Bacteroides fragilis, ATCC25285; B. fragilis MMX 123 (ATCC 25285); QC; read-out: MIC
# S. pneumoniae [1] = details: S. pneumoniae MMX 6837 (ATCC 49619); cited from earlier work
# [2] = tested on: non-speciated Anaerococcus; assay: MIC of baseline clinical isolates (Example 8); type: cell-based; details: Anaerococcus non-speciated baseline isolates (N′ = 1), central laboratory, mITT
# Experimental: (§8) Microbiology was assessed on Day 1 and at the time of any subsequent surgical procedure at the index site. Samples were collected from the infected bone site or involved tissue adjacent to any implant(s), swabs of the deep infection site, and the superficial tissue/wound closure/sinus tract site. […] Parallel sets of samples were analyzed by the local clinical site laboratory to guide patient antibiotic treatment.
# Clostridium sphenoides = assay: MIC of baseline clinical isolates (Example 8); type: cell-based; details: Clostridium sphenoides baseline isolates (N′ = 1), central laboratory, mITT
# Experimental: as §8
# F. magna = assay: MIC of baseline clinical isolates (Example 8); type: cell-based; details: Finegoldia magna baseline isolates (N′ = 4), central laboratory, mITT
# Experimental: as §8
# Peptoniphilus gorbachii = assay: MIC of baseline clinical isolates (Example 8); type: cell-based; details: Peptoniphilus gorbachii baseline isolates (N′ = 1), central laboratory, mITT
# Experimental: as §8
# [3] = tested on: Cutibacterium [Propionibacterium] acnes; assay: MIC of baseline clinical isolates (Example 8); type: cell-based; details: Cutibacterium (Proprionibacterium) acnes baseline isolates (N′ = 3), central laboratory, mITT
# Experimental: as §8
# Actinomyces turicensis = assay: MIC of baseline clinical isolates (Example 8); type: cell-based; details: Actinomyces turicensis baseline isolates (N′ = 1), central laboratory, mITT
# Experimental: as §8
# Anaerococcus murdochii = assay: MIC of baseline clinical isolates (Example 8); type: cell-based; details: Anaerococcus murdochii baseline isolates (N′ = 1), central laboratory, mITT
# Experimental: as §8
# [4] = tested on: Corynebacterium resistens; assay: MIC of baseline clinical isolates (Example 8); type: cell-based; details: Corynebacterium resistens baseline isolates (N′ = 1), central laboratory, mITT
# In short: (§9)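 Specimens were taken on Day 1 and at each subsequent surgery from infected bone, adjacent peri-implant tissue, the deep infection site and superficial tissue. Bacteria were isolated and identified centrally, then susceptibility to MBN-101 (BisEDT) was tested following CLSI.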
# [5] = tested on: non-speciated Corynebacterium; assay: MIC of baseline clinical isolates (Example 8); type: cell-based; details: Corynebacterium non-speciated baseline isolates (N′ = 2), central laboratory, mITT
# In short: as §9
# Corynebacterium jeikeium = assay: MIC of baseline clinical isolates (Example 8); type: cell-based; details: Corynebacterium jeikeium baseline isolates (N′ = 2), central laboratory, mITT
# In short: as §9
# Dermabacter hominis = assay: MIC of baseline clinical isolates (Example 8); type: cell-based; details: Dermabacter hominis baseline isolates (N′ = 1), central laboratory, mITT
# In short: as §9
# Streptococcus oralis = assay: MIC of baseline clinical isolates (Example 8); type: cell-based; details: Streptococcus oralis baseline isolates (N′ = 1), central laboratory, mITT
# In short: as §9
# [6] = tested on: Corynebacterium amycolatum; assay: MIC of baseline clinical isolates (Example 8); type: cell-based; details: Corynebacterium amycolatum baseline isolates (N′ = 1), central laboratory, mITT
# In short: as §9
# S. agalactiae = assay: Broth microdilution MIC (Example 5); type: cell-based
# Experimental: as §1, §2, §3, §4, §5, §6, §7
# S. pyogenes = assay: Broth microdilution MIC (Example 5); type: cell-based
# Experimental: as §1, §2, §3, §4, §5, §6, §7
# S. pneumoniae [7] = assay: Broth microdilution MIC (Example 5); type: cell-based
# Experimental: as §1, §2, §3, §4, §5, §6, §7
compound,measurement,setting,value
"CC[C@H]1OC(=O)[C@H](C)[C@@H](O[C@H]2C[C@@](C)(OC)[C@@H](O)[C@H](C)O2)[C@H](C)[C@@H](O[C@@H]2O[C@H](C)C[C@H](N(C)C)[C@H]2O)[C@](C)(OC)C[C@@H](C)C(=O)[C@H](C)[C@@H](O)[C@]1(C)O [Clarithromycin, reference compound]",MIC,"M. abscessus (MABSC); strain AMT0068-40, M abscessus/massiliense complex",1 µg/mL
same,MIC,"M. abscessus (MABSC); strain AMT0119-7, M abscessus/massiliense complex",1 µg/mL
same,"MIC, acceptable range",S. aureus ATCC 29213,0.12 to 0.5 µg/mL
same,"MIC, expected results",S. aureus ATCC 29213,0.25 µg/mL
CCC[C@@H]1C[C@@H](C(=O)N[C@@H]([C@H]2O[C@H](SC)[C@H](O)[C@@H](O)[C@H]2O)[C@H](C)Cl)N(C)C1 [Clindamycin],MIC,E. faecium,>32 µg/mL
same,MIC,"C. difficile; ATCC700057, C. difficile MMX 4381 (ATCC 700057), QC, CCI",4 µg/mL
same,MIC,"C. difficile; C. difficile MMX 8272, ribotype 255, CCI",4 µg/mL
same,MIC,"C. difficile; C. difficile MMX 8279, ribotype 005, CCR",> 64 µg/mL
same,MIC,"C. difficile; C. difficile MMX 8281, ribotype 010, CCR",> 64 µg/mL
same,MIC,"C. difficile; NCTC13307, C. difficile MMX 5681 (NCTC 13307), ribotype 012, CCR",> 64 µg/mL
same,MIC,"C. difficile; NCTC13336, C. difficile MMX 5680 (NCTC 13336), ribotype 027, CCI METR",4 µg/mL
same,MIC,B. fragilis,1 µg/mL
CC[C@H]1OC(=O)[C@H](C)[C@@H](O[C@H]2C[C@@](C)(OC)[C@@H](O)[C@H](C)O2)[C@H](C)[C@@H](O[C@@H]2O[C@H](C)C[C@H](N(C)C)[C@H]2O)[C@](C)(O)C[C@@H](C)C(=O)[C@H](C)[C@@H](O)[C@]1(C)O [Erythromycin],MIC,E. faecium,>64 µg/mL
same,CLSI QC range of MIC,S. pneumoniae [1],(0.03-0.12) μg/mL
Cc1ncc([N+](=O)[O-])n1CCO [MTZ],Mean MIC,[2],16.00 µg/mL
same,n (% resistant),[2],1 (100.0) n (%)
same,Mean MIC,Clostridium sphenoides,0.32 µg/mL
same,n (% resistant),Clostridium sphenoides,0 (0.0) n (%)
same,Mean MIC,F. magna,0.56 µg/mL
same,n (% resistant),F. magna,0 (0.0) n (%)
same,Mean MIC,Peptoniphilus gorbachii,0.50 µg/mL
same,n (% resistant),Peptoniphilus gorbachii,0 (0.0) n (%)
same,Mean MIC,[3],16.00 µg/mL
same,n (% resistant),[3],3 (100.0) n (%)
same,Mean MIC,Actinomyces turicensis,16.00 µg/mL
same,n (% resistant),Actinomyces turicensis,1 (100.0) n (%)
same,Mean MIC,Anaerococcus murdochii,1.00 µg/mL
same,n (% resistant),Anaerococcus murdochii,0 (0.0) n (%)
CCN1CCN(C(=O)N[C@@H](C(=O)N[C@@H]2C(=O)N3[C@@H]2SC(C)(C)[C@@H]3C(=O)O)c2ccccc2)C(=O)C1=O.C[C@]1(Cn2ccnn2)[C@H](C(=O)O)N2C(=O)C[C@H]2S1(=O)=O [TZP],Mean MIC,[4],1.00 µg/mL
same,n (% resistant),[4],0 (0.0) n (%)
same,Mean MIC,[5],1.00 µg/mL
same,n (% resistant),[5],0 (0.0) n (%)
same,Mean MIC,Corynebacterium jeikeium,1.00 µg/mL
same,n (% resistant),Corynebacterium jeikeium,0 (0.0) n (%)
same,Mean MIC,Dermabacter hominis,0.50 µg/mL
same,n (% resistant),Dermabacter hominis,0 (0.0) n (%)
same,Mean MIC,Streptococcus oralis,0.06 µg/mL
same,n (% resistant),Streptococcus oralis,0 (0.0) n (%)
same,Mean MIC,[6],1.00 µg/mL
same,n (% resistant),[6],0 (0.0) n (%)
same,n (% resistant),[2],0 (0.0) n (%)
same,Mean MIC,Clostridium sphenoides,16.00 µg/mL
same,n (% resistant),Clostridium sphenoides,0 (0.0) n (%)
same,Mean MIC,F. magna,0.34 µg/mL
same,n (% resistant),F. magna,0 (0.0) n (%)
same,Mean MIC,Peptoniphilus gorbachii,0.03 µg/mL
same,n (% resistant),Peptoniphilus gorbachii,0 (0.0) n (%)
same,Mean MIC,[3],0.29 µg/mL
same,n (% resistant),[3],0 (0.0) n (%)
same,Mean MIC,Actinomyces turicensis,1.00 µg/mL
same,n (% resistant),Actinomyces turicensis,0 (0.0) n (%)
same,Mean MIC,Anaerococcus murdochii,0.50 µg/mL
same,n (% resistant),Anaerococcus murdochii,0 (0.0) n (%)
Penicillin,MIC,"S. agalactiae; S. agalactiae MMX 3741, ERYR CCR",0.03 µg/mL
same,MIC,"S. agalactiae; S. agalactiae MMX 3743, ERYR CCR",0.06 µg/mL
same,MIC,"S. agalactiae; S. agalactiae MMX 4077, ERYR CCR",0.06 µg/mL
same,MIC,"S. agalactiae; S. agalactiae MMX 4079, ERYR CCR PenR MEMR",2 µg/mL
same,MIC,"S. agalactiae; S. agalactiae MMX 4086, ERYR CCR",0.06 µg/mL
same,MIC,"S. pyogenes; S. pyogenes MMX 3068, EryR",≤0.008 µg/mL
same,MIC,"S. pyogenes; S. pyogenes MMX 3820, ERYR CLIR",≤0.008 µg/mL
same,MIC,"S. pyogenes; S. pyogenes MMX 3919, ERYR",≤0.008 µg/mL
same,MIC,"S. pyogenes; S. pyogenes MMX 3929, ERYR CCR",≤0.008 µg/mL
same,MIC,"S. pyogenes; S. pyogenes MMX 5091, ERYR CCR",≤0.008 µg/mL
same,MIC,"S. pneumoniae [7]; S. pneumoniae MMX 880, LevR SXTR CCR EryR PenR",2 µg/mL
same,MIC,"S. pneumoniae [7]; S. pneumoniae MMX 937, MemR SXTR CCR EryR PenR",4 µg/mL
same,MIC,"S. pneumoniae [7]; S. pneumoniae MMX 3959, CCR EryR",0.12 µg/mL
same,MIC,"S. pneumoniae [7]; S. pneumoniae MMX 5440, MemR SXTR CCR EryR PenR",4 µg/mL
same,MIC,"S. pneumoniae [7]; S. pneumoniae MMX 5445, MemR SXTR CCR EryR PenR",4 µg/mL
same,MIC,"S. pneumoniae [7]; S. pneumoniae MMX 6837 (ATCC 49619), QC",0.25 µg/mL
same,MIC,"S. pneumoniae [7]; S. pneumoniae MMX 8133, MemR SXTR CCR EryR PenR",4 µg/mL
same,CLSI QC range of MIC,S. pneumoniae [1],(0.25-1) μg/mL
